Test systems include OVCAR-4; HCT-15; HCC 2998; SW-620; NCI-H460; MOLT-4; U-251; T47D; SK-MEL-5; KM12; K562; SN12C; MCF7; M14; Malme-3M; SF-268; SK-MEL-2; CAKI-1; A498; LOX IMVI.
What all share (test): NCI anticancer screen, dose series, 48 h

Where “and” joins values, the source holds several entries; their conditions need not be identical. Equal entries are not always repeated.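 Briefly, cells in 96-well plates were exposed to five compound concentrations for 48 h, and endpoints were estimated by linear interpolation. The concentration for 50% growth inhibition is given as GI50.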 Calls of active or inactive are those of the source. No stated cut-off is given here; in the data, active = GI50 up to about 1.1 µM and inactive = higher. Where only a bound is given, the exact number is not on record here.

`O=C(NC1=C(Cl)C(=O)c2ccccc2C1=O)c1ccccc1`: the GI50 is 45.1 µM (inactive) with OVCAR-4; 25.2 µM in the test on HCT-15; 46.5 µM (inactive) in the test with HCC 2998; 17.3 µM (inactive) with SW-620; 40.3 µM (inactive) in the test on NCI-H460; 20.1 µM (inactive) in the test on MOLT-4. The GI50 in the test on U-251 is 27.8 µM (inactive); in the test on T47D, 22.1 µM (inactive); in the test with SK-MEL-5, 27.5 µM (inactive); in the test on KM12, 32.1 µM (inactive); with K562 it was 21.8 µM (inactive); in the test with SN12C, 38.1 µM (inactive). For the same compound, the GI50 in the test on MCF7 is 19.2 µM (inactive); in the test with M14, 50.8 µM (inactive); in the test on Malme-3M it was 16.9 µM (inactive); in the test on SF-268, 64.1 µM (inactive).

For `COc1ccc(/N=N/C(=N/NC(=O)c2cc(Cl)ccc2C(=O)c2ccccc2)c2ccc(N(CCC#N)CCC#N)cc2C)cc1`, the GI50 in the test on OVCAR-4 was 21.4 µM (inactive); in the test on HCT-15, 13.9 µM; in the test on HCC 2998, 18.9 µM (inactive); in the test with SW-620, 22.3 µM (inactive); with NCI-H460, 11.5 µM (inactive); with MOLT-4 it was 9.08 µM (inactive). Further, the GI50 in the test on U-251 is 16.4 µM (inactive); in the test with T47D it was 15 µM (inactive); in the test with SK-MEL-5, 15.5 µM (inactive); in the test with SK-MEL-2 it was 6.9 µM (inactive); with KM12, 21.4 µM (inactive); with K562, 12.9 µM (inactive). Also, the GI50 in the test on SN12C is 14.6 µM (inactive); in the test with MCF7, 25.4 µM (inactive); with CAKI-1 it was 21.3 µM (inactive); with M14 it was 18.2 µM (inactive); in the test on Malme-3M it was 26.2 µM (inactive); in the test on SF-268, 12.1 µM (inactive).

With `CN(C)C(c1ccccc1)C1COC2Cc3ccccc3C1O2` (configuration not stated), the GI50 is > 100 µM (inactive) in the test with OVCAR-4; above 100 µM in the test with HCT-15; > 100 µM (inactive) in the test with HCC 2998; > 100 µM (inactive) with NCI-H460; > 100 µM (inactive) in the test with A498; > 100 µM (inactive) and 54 µM (inactive) in the test with MOLT-4. Moreover, the GI50 with U-251 was > 100 µM (inactive); in the test with T47D it was > 100 µM (inactive); with SK-MEL-5, > 100 µM (inactive); with SK-MEL-2 it was > 100 µM (inactive); in the test on KM12, > 100 µM (inactive); with K562 it was 66.2 µM (inactive) and 38.7 µM (inactive). Further, the GI50 with SN12C is > 100 µM (inactive); with LOX IMVI, 62.2 µM (inactive) and 64.4 µM (inactive); with CAKI-1, > 100 µM (inactive); with M14 it was > 100 µM (inactive); in the test on Malme-3M it was > 100 µM (inactive) and 60.7 µM (inactive); in the test with SF-268, > 100 µM (inactive).

In the case of `CN(Cc1cnc2nc(N)nc(N)c2n1)c1ccc(C(=O)N[C@@H](CCS(=O)(=O)O)C(=O)O)cc1`, the GI50 was > 100 µM (inactive) in the test on OVCAR-4; 0.0514 µM with HCT-15; 0.61 µM (active) in the test on HCC 2998; 0.0824 µM (active) with SW-620; 0.169 µM (active) in the test with NCI-H460; 0.745 µM (active) with MOLT-4. Also, the GI50 is > 100 µM (inactive) with U-251; > 100 µM (inactive) in the test with T47D; 0.541 µM (active) with SK-MEL-5; > 100 µM (inactive) in the test on SK-MEL-2; 1.64 µM (inactive) in the test on KM12; > 100 µM (inactive) with K562. Besides, the GI50 with SN12C is > 100 µM (inactive); in the test on MCF7, 0.127 µM (active); in the test on LOX IMVI, 52.6 nM (active); in the test with CAKI-1, > 100 µM (inactive); in the test with M14 it was 0.111 µM (active); with SF-268 it was 0.151 µM (active).

Take `O=C1C(Cl)=C(N2CCSCC2)C(=O)c2c(O)ccc(O)c21`: the GI50 with OVCAR-4 is 0.552 µM (active); with SW-620, 0.258 µM (active); in the test with NCI-H460, 0.494 µM (active); with MOLT-4 it was 0.641 µM (active); in the test on T47D, 0.662 µM (active); in the test with SK-MEL-5 it was 0.451 µM (active). In addition, the GI50 in the test on SK-MEL-2 is 0.204 µM (active); with KM12 it was 0.38 µM (active); in the test with LOX IMVI, 186 nM (active); in the test on CAKI-1, 0.528 µM (active); in the test on M14, 0.33 µM (active); in the test with Malme-3M it was 0.382 µM (active). The GI50 in the test with SF-268 is 0.514 µM (active).

As to `CCOC(=O)C(NC(=O)NCc1ccc(F)cc1)C(F)(F)F` (configuration not stated), the GI50 with HCT-15 was above 100 µM; in the test on HCC 2998, > 100 µM (inactive); with SW-620 it was > 100 µM (inactive); in the test on A498, > 100 µM (inactive); in the test with MOLT-4, > 10 µM (inactive); in the test with U-251, > 100 µM (inactive). Moreover, the GI50 in the test on T47D was > 100 µM (inactive); in the test with SK-MEL-5 it was > 100 µM (inactive); in the test on SK-MEL-2 it was > 100 µM (inactive); in the test on K562 it was > 100 µM (inactive); in the test with SN12C, > 100 µM (inactive); in the test on LOX IMVI it was > 100000 nM (inactive). In addition, the GI50 in the test on M14 and with SF-268 was > 100 µM (inactive) each time.

Consider `O/N=C1/CCCCCC1NO` (configuration not stated), for which the GI50 with OVCAR-4 was > 100 µM (inactive); in the test with HCT-15, above 100 µM; in the test with HCC 2998 it was > 100 µM (inactive); in the test on SW-620, > 100 µM (inactive); with NCI-H460, > 100 µM (inactive); with MOLT-4, > 100 µM (inactive). The GI50 in the test with U-251, in the test with T47D, with SK-MEL-5, in the test with SK-MEL-2, in the test with KM12 and in the test with SN12C was > 100 µM (inactive) each time. Further, the GI50 with MCF7 was > 100 µM (inactive); with LOX IMVI, > 100000 nM (inactive); in the test with CAKI-1, > 100 µM (inactive); in the test on M14, > 100 µM (inactive); in the test on Malme-3M, > 100 µM (inactive); in the test on SF-268 it was > 100 µM (inactive).

Turning to `CC[C@H]1C=CCC[C@@]2(C[C@@H]3CC[C@@H]4[C@H](C(=O)OCCCCCCCCCCCCCCCC(=O)N(CCCN)CCCCN)[C@]5(CCC[C@@H](C)O5)NC(=[N+]34)N2)O1`, the GI50 in the test on OVCAR-4 was 1.34 µM (inactive); in the test with HCT-15, 0.0479 µM; with HCC 2998, 0.0641 µM (active); in the test with SW-620, 0.0547 µM (active); in the test with NCI-H460 it was 0.0301 µM (active); in the test on A498 it was 1.56 µM (inactive). The GI50 with MOLT-4 was 0.0155 µM (active); in the test on U-251, 0.0561 µM (active); in the test with SK-MEL-5, < 0.01 µM (active); in the test with SK-MEL-2 it was 0.0259 µM (active); in the test with KM12, 0.0459 µM (active); with K562 it was 0.0299 µM (active). Moreover, the GI50 with SN12C was 0.0753 µM (active); with MCF7, 0.0684 µM (active); in the test on LOX IMVI, 18 nM (active); in the test on CAKI-1, 0.0908 µM (active); in the test with M14, < 0.01 µM (active); in the test on Malme-3M, 0.04 µM (active). The GI50 with SF-268 was 0.0214 µM (active).

Take `CC[C@]12C=CCN3CCC4(c5cc([C@@]6(C(=O)OC)CC7CN(CCc8c6[nH]c6ccccc86)CC6CCCCC67)c(OC)cc5N(C)C4[C@](O)(C(=O)OC)C1OC(C)=O)[C@@H]32` (some centres not stated): the GI50 in the test with OVCAR-4 was 3.38 µM (inactive); with HCT-15, 0.111 µM; in the test on HCC 2998, < 0.01 µM (active); in the test with SW-620, < 0.01 µM (active); in the test on NCI-H460 it was < 0.01 µM (active); with A498, < 0.015 µM (active). The GI50 with MOLT-4, with U-251, with SK-MEL-5, with SK-MEL-2, in the test on KM12 and in the test with K562 was < 0.01 µM (active) in each case. For the same compound, the GI50 in the test with SN12C was < 0.01 µM (active); in the test with MCF7, < 0.01 µM (active); in the test on LOX IMVI it was < 10 nM (active); in the test with CAKI-1, < 0.0252 µM (active); with M14, < 0.01 µM (active); with Malme-3M, < 0.01 µM (active). The GI50 in the test on SF-268 is < 0.01 µM (active).

Take `CNc1nc(C(N)=O)c(N)s1`: the GI50 with OVCAR-4 is > 100 µM (inactive); in the test with HCT-15 it was above 100 µM; in the test with SW-620, > 100 µM (inactive); in the test with NCI-H460, > 100 µM (inactive); in the test with A498, > 100 µM (inactive); with MOLT-4, > 100 µM (inactive). Further, the GI50 is > 100 µM (inactive) in the test with U-251; > 100 µM (inactive) in the test on T47D; 84.9 µM (inactive) in the test with SK-MEL-5; > 100 µM (inactive) in the test with SK-MEL-2; > 100 µM (inactive) in the test on KM12; > 100 µM (inactive) in the test with K562. The GI50 with SN12C was > 100 µM (inactive); in the test on LOX IMVI it was > 100000 nM (inactive); in the test with CAKI-1, > 100 µM (inactive); in the test on M14 it was > 100 µM (inactive); with Malme-3M, > 100 µM (inactive); in the test with SF-268, > 100 µM (inactive).

On to `C/C(NC(=O)c1ccccc1)=C(/C(=O)c1ccccc1)[C@@H]1OC(C)(C)O[C@@H]1[C@H]1COC(C)(C)O1`, for which the GI50 with OVCAR-4 was 27.6 µM (inactive); in the test on HCT-15 it was 32.8 µM; in the test on HCC 2998, 23.9 µM (inactive); in the test on SW-620, 20.3 µM (inactive); in the test on NCI-H460, 20.7 µM (inactive); in the test with A498 it was 86.1 µM (inactive). Besides, the GI50 in the test on MOLT-4 is 15.5 µM (inactive); in the test with U-251, 30.9 µM (inactive); in the test on SK-MEL-5 it was 16.3 µM (inactive); in the test with SK-MEL-2, 23.3 µM (inactive); in the test with KM12, 28.6 µM (inactive); in the test on K562 it was 20.9 µM (inactive). Moreover, the GI50 in the test with SN12C is 25.2 µM (inactive); in the test on MCF7, 40.8 µM (inactive); with LOX IMVI, 19900 nM (inactive); with CAKI-1, 29.3 µM (inactive); in the test on M14 it was 30.8 µM (inactive); with Malme-3M it was 37.6 µM (inactive). The GI50 in the test with SF-268 was 35.6 µM (inactive).

For `C[n+]1c(-c2ccc(/C=N/Nc3ccnc(N/N=C/c4ccc(-c5cn6ccccc6[n+]5C)cc4)n3)cc2)cn2ccccc21`, the GI50 in the test with OVCAR-4 was > 100 µM (inactive); in the test on HCT-15, 98.9 µM; with HCC 2998, > 100 µM (inactive); with SW-620 it was 71.1 µM (inactive); in the test on NCI-H460 it was 31.3 µM (inactive); in the test on MOLT-4, > 100 µM (inactive). Moreover, the GI50 with T47D was 54.8 µM (inactive); in the test on SK-MEL-5, 56.4 µM (inactive); with KM12, 32.6 µM (inactive); with SN12C, > 100 µM (inactive); with M14, 31.2 µM (inactive); with SF-268, 88.9 µM (inactive).

Source of the values: ChEMBL document CHEMBL1201862, “PubChem BioAssay data set” (2004).
